Data taken from patent publication US20060286182A1, “Synergistic cinnamon combinations and methods for enhancing insulin activity” (Abeille Pharmaceuticals, Inc., priority 2005, published 2006).

Test system: 3T3-L1 adipocytes
Assay: Oil Red O staining of triglyceride content (lipogenesis) in differentiating 3T3-L1 adipocytes
Format: cell-based, murine
Settings: for increase in triglyceride content (lipogenic/adipogenic increase) relative to the solvent control: 50 μg test material/mL, Day 0 to Day 7 of differentiation
Source text: The Model—The 3T3-L1 murine fibroblast model is used to study the potential effects of compounds on adipocyte differentiation and adipogenesis.
As preadipocytes, 3T3-L1 cells have a fibroblastic appearance. They replicate in culture until they form a confluent monolayer, after which cell-cell contact triggers Go/G1 growth arrest. Terminal differentiation of 3T3-L1 cells to adipocytes depends on proliferation of both pre- and postconfluent preadipocytes. Subsequent stimulation with 3-isobutyl-1-methylxanthane, dexamethasone, and high dose of insulin (MDI) for two days prompts these cells to undergo postconfluent mitotic clonal expansion, exit the cell cycle, and begin to express adipocyte-specific genes. Approximately five days after induction of differentiation, more than 90% of the cells display the characteristic lipid-filled adipocyte phenotype.
Cell culture and Treatment—The murine fibroblast cell line 3T3-L1 was obtained from the American Type Culture Collection (Manasus, Va.) and sub-cultured according to instructions from the supplier. For experiments, cells were cultured in DMEM containing 10% FBS-HI, with added 50 units penicillin/mL and 50 μg streptomycin/mL, and maintained in log phase prior to experimental setup. Cells were grown in a 5% CO2 humidified incubator at 37° C. Components of the pre-confluent medium included (1) 10% FBS/DMEM containing 4.5 g glucose/L; (2) 50 U/mL penicillin; and (3) 50 μg/mL streptomycin. Growth medium was made by adding 50 mL of heat inactivated FBS and 5 mL of penicillin/streptomycin to 500 mL DMEM. This medium was stored at 4° C. Before use, the medium was warmed to 37° C. in a water bath.
3T3-T1 cells were seeded at an initial density of about 4×10^4 cells/cm^2 in 24-well plates. For two days, the cells were allowed to grow to reach confluence. Following confluence, the cells were forced to differentiate into adipocytes by the addition of differentiation medium; this medium consisted of (1) 10% FBS/DMEM (high glucose); (2) 0.5 mM methylisobutylxanthine; (3) 0.5 μM dexamethasone and (4) 10 Hg/mL insulin. After three days, the medium was changed to post-differentiation medium consisting of 10 μg/mL insulin in 10% FBS/DMEM.
Test material was added in dimethyl sulfoxide at Day 0 of differentiation and every two days throughout the maturation phase (Day 7). Whenever fresh media was added, fresh test material was also added. As a positive control, troglitazone was added to achieve a final concentration of 4.4 μg/mL (10 μM). Metformin, Sample A and the metformin/Sample A combinations of 1:10, 1:5 and 1:2.5 were all tested at 50 μg test material/mL. Metformin, Sample B and the metformin/Sample B combination of 1:10 were all tested at 50 μg test material/mL.

SMILES | increase in triglyceride content (lipogenic/adipogenic increase) relative to the solvent control | increase in triglyceride content (lipogenic/adipogenic increase) relative to the solvent control (listed as glipizide) | increase in triglyceride content of the 3T3-L1 cells (positive control, 4.4 μg/mL (10 μM), Day 0 to Day 7, relative to solvent control) [%]
Cc1cnc(C(=O)NCCc2ccc(S(=O)(=O)NC(=O)NC3CCCCC3)cc2)cn1 [Glipizide] | 40% | increased triglyceride biosynthesis | 
Cc1c(C)c2c(c(C)c1O)CCC(C)(COc1ccc(CC3SC(=O)NC3=O)cc1)O2 (stereo not shown) [Troglitazone, troglitazone] |  |  | 54
CN(C)C(=N)N=C(N)N [metformin] | four |  | 
